Measurements taken from US10005774B2, “Syk inhibitors” (Gilead Sciences, Inc., priority 2013, dated 2018).

target: Syk (Homo sapiens, UniProt P43405); assay: High Throughput Syk Biochemical Assay (KinEASE TR-FRET); settings: TABLE D, 20 μM ATP, 1 μM biotinylated peptide, 0.015 nM Syk, 30 min at room temperature, read-out: IC50
Method in brief: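 Compounds in DMSO dilution series were tested against Syk, which phosphorylates an XL665-tagged peptide. The phosphoproduct was bound by Eu-labelled phosphotyrosine antibody in a two-step endpoint format.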

| Compound | IC50 |
| --- | --- |
| COc1ccc(-c2cn3ncc(Cl)c3c(O[C@H](C)[C@H]3CNC(=O)C3)n2)cc1OC [(R)-4-((R)-1-((3-chloro-6-(3,4-dimethoxyphenyl)pyrazolo[1,5-a]pyrazin-4-yl)oxy)ethyl)pyrrolidin-2-one] | 0.321 nM |
| COc1ccc(-c2cc(O[C@H](C)[C@H]3CNC(=O)C3)c3c(Cl)cnn3c2)cc1OC [(R)-4-((R)-1-((3-chloro-6-(3,4-dimethoxyphenyl)pyrazolo[1,5-a]pyridin-4-yl)oxy)ethyl)pyrrolidin-2-one] | 1.07 nM |
| C[C@@H](Oc1cc(-c2ccc(N3CCOCC3)cc2)cn2ncc(Cl)c12)[C@H]1CNC(=O)C1 [(R)-4-((R)-1-((3-chloro-6-(4-morpholinophenyl)pyrazolo[1,5-a]pyridin-4-yl)oxy)ethyl)pyrrolidin-2-one] | 0.31 nM |

same assay, conditions: table 'ALL NEW COMPOUNDS IN 2014', 20 μM ATP, 1 μM biotinylated peptide, 0.015 nM Syk, 30 min at room temperature, read-out: Syk IC50

| Compound | IC50 |
| --- | --- |
| C[C@@H](Oc1nc(-c2ccc(N3CCN(C4COC4)CC3)nc2)cc2ncn(C(F)F)c12)[C@H]1CNC(=O)C1 [(R)-4-((R)-1-((3-(difluoromethyl)-6-(6-(4-(oxetan-3-yl)piperazin-1-yl)pyridin-3-yl)-3H-imidazo[4,5-c]pyridin-4-yl)oxy)ethyl)pyrrolidin-2-one] | 2.9 nM |
| Cc1nn(C)c2ccc(-c3cc4ncn(C5CC5)c4c(O[C@H](C)[C@H]4CNC(=O)C4)n3)cc12 [(R)-4-((R)-1-((3-cyclopropyl-6-(1,3-dimethyl-1H-indazol-5-yl)-3H-imidazo[4,5-c]pyridin-4-yl)oxy)ethyl)pyrrolidin-2-one] | 3.46 nM |
| C[C@@H](Oc1nc(-c2ccc3c(cnn3CC(F)F)c2)cc2ncn(C3CC3)c12)[C@H]1CNC(=O)C1 [(R)-4-((R)-1-((3-cyclopropyl-6-(1-(2,2-difluoroethyl)-1H-indazol-5-yl)-3H-imidazo[4,5-c]pyridin-4-yl)oxy)ethyl)pyrrolidin-2-one] | 1.81 nM |
| C[C@@H](Oc1nc(-c2ccc3c(c2)NCCN3C)cc2ncn(C3CC3)c12)[C@H]1CNC(=O)C1 [(R)-4-((R)-1-((3-cyclopropyl-6-(1-methyl-1,2,3,4-tetrahydroquinoxalin-6-yl)-3H-imidazo[4,5-c]pyridin-4-yl)oxy)ethyl)pyrrolidin-2-one] | 2.25 nM |
| C[C@@H](Oc1nc(-c2ccc3c(c2)OCCO3)cc2ncn(C3CC3)c12)[C@H]1CNC(=O)C1 [(R)-4-((R)-1-((3-cyclopropyl-6-(2,3-dihydrobenzo[b][1,4]dioxin-6-yl)-3H-imidazo[4,5-c]pyridin-4-yl)oxy)ethyl)pyrrolidin-2-one] | 5.52 nM |
| C[C@@H](Oc1nc(-c2cnc(C(C)(C)O)s2)cc2ncn(C3CC3)c12)[C@H]1CNC(=O)C1 [(R)-4-((R)-1-((3-cyclopropyl-6-(2-(2-hydroxypropan-2-yl)thiazol-5-yl)-3H-imidazo[4,5-c]pyridin-4-yl)oxy)ethyl)pyrrolidin-2-one] | 7.54 nM |
| C[C@@H](Oc1nc(-c2cnc(C3CCOCC3)s2)cc2ncn(C3CC3)c12)[C@H]1CNC(=O)C1 [(R)-4-((R)-1-((3-cyclopropyl-6-(2-(tetrahydro-2H-pyran-4-yl)thiazol-5-yl)-3H-imidazo[4,5-c]pyridin-4-yl)oxy)ethyl)pyrrolidin-2-one] | 3.54 nM |
| C[C@@H](Oc1nc(-c2cnc(C(F)(F)F)s2)cc2ncn(C3CC3)c12)[C@H]1CNC(=O)C1 [(R)-4-((R)-1-((3-cyclopropyl-6-(2-(trifluoromethyl)thiazol-5-yl)-3H-imidazo[4,5-c]pyridin-4-yl)oxy)ethyl)pyrrolidin-2-one] | 67.7 nM |
| C[C@@H](Oc1nc(-c2ccc(N3CCN(C4COC4)CC3)cc2F)cc2ncn(C3CC3)c12)[C@H]1CNC(=O)C1 [(R)-4-((R)-1-((3-cyclopropyl-6-(2-fluoro-4-(4-(oxetan-3-yl)piperazin-1-yl)phenyl)-3H-imidazo[4,5-c]pyridin-4-yl)oxy)ethyl)pyrrolidin-2-one] | 10.1 nM |
| Cc1ncc(-c2cc3ncn(C4CC4)c3c(O[C@H](C)[C@H]3CNC(=O)C3)n2)s1 [(R)-4-((R)-1-((3-cyclopropyl-6-(2-methylthiazol-5-yl)-3H-imidazo[4,5-c]pyridin-4-yl)oxy)ethyl)pyrrolidin-2-one] | 10.2 nM |
| C[C@@H](Oc1nc(-c2cnc(N3CCOCC3)s2)cc2ncn(C3CC3)c12)[C@H]1CNC(=O)C1 [(R)-4-((R)-1-((3-cyclopropyl-6-(2-morpholinothiazol-5-yl)-3H-imidazo[4,5-c]pyridin-4-yl)oxy)ethyl)pyrrolidin-2-one] | 2.13 nM |
| C[C@@H](Oc1nc(-c2ccc3c(c2)NCC3(C)C)cc2ncn(C3CC3)c12)[C@H]1CNC(=O)C1 [(R)-4-((R)-1-((3-cyclopropyl-6-(3,3-dimethylindolin-6-yl)-3H-imidazo[4,5-c]pyridin-4-yl)oxy)ethyl)pyrrolidin-2-one] | 2.33 nM |
| CCOc1cc(-c2cc3ncn(C4CC4)c3c(O[C@H](C)[C@H]3CNC(=O)C3)n2)ccc1OC [(R)-4-((R)-1-((3-cyclopropyl-6-(3-ethoxy-4-methoxyphenyl)-3H-imidazo[4,5-c]pyridin-4-yl)oxy)ethyl)pyrrolidin-2-one] | 2.92 nM |
| C[C@@H](Oc1nc(-c2ccc(N3CCN(S(C)(=O)=O)CC3)c(F)c2)cc2ncn(C3CC3)c12)[C@H]1CNC(=O)C1 [(R)-4-((R)-1-((3-cyclopropyl-6-(3-fluoro-4-(4-(methylsulfonyl)piperazin-1-yl)phenyl)-3H-imidazo[4,5-c]pyridin-4-yl)oxy)ethyl)pyrrolidin-2-one] | 2.02 nM |
| C[C@@H](Oc1nc(-c2ccc(N3CCN(C4COC4)CC3)c(F)c2)cc2ncn(C3CC3)c12)[C@H]1CNC(=O)C1 [(R)-4-((R)-1-((3-cyclopropyl-6-(3-fluoro-4-(4-(oxetan-3-yl)piperazin-1-yl)phenyl)-3H-imidazo[4,5-c]pyridin-4-yl)oxy)ethyl)pyrrolidin-2-one] | 2.37 nM |
| Cc1cc(-c2cc3ncn(C4CC4)c3c(O[C@H](C)[C@H]3CNC(=O)C3)n2)ccc1N1CCN(C2COC2)CC1 [(R)-4-((R)-1-((3-cyclopropyl-6-(3-methyl-4-(4-(oxetan-3-yl)piperazin-1-yl)phenyl)-3H-imidazo[4,5-c]pyridin-4-yl)oxy)ethyl)pyrrolidin-2-one] | 1.44 nM |
| Cc1cc(-c2cc3ncn(C4CC4)c3c(O[C@H](C)[C@H]3CNC(=O)C3)n2)sn1 [(R)-4-((R)-1-((3-cyclopropyl-6-(3-methylisothiazol-5-yl)-3H-imidazo[4,5-c]pyridin-4-yl)oxy)ethyl)pyrrolidin-2-one] | 2.27 nM |
| C[C@@H](Oc1nc(-c2ccc(C3CCN(C4COC4)CC3)cc2)cc2ncn(C3CC3)c12)[C@H]1CNC(=O)C1 [(R)-4-((R)-1-((3-cyclopropyl-6-(4-(1-(oxetan-3-yl)piperidin-4-yl)phenyl)-3H-imidazo[4,5-c]pyridin-4-yl)oxy)ethyl)pyrrolidin-2-one] | 2.31 nM |
| COc1cc(-c2cc3ncn(C4CC4)c3c(O[C@H](C)[C@H]3CNC(=O)C3)n2)ccc1OCC(F)F [(R)-4-((R)-1-((3-cyclopropyl-6-(4-(2,2-difluoroethoxy)-3-methoxyphenyl)-3H-imidazo[4,5-c]pyridin-4-yl)oxy)ethyl)pyrrolidin-2-one] | 2.78 nM |
| C[C@@H](Oc1nc(-c2ccc(N3CCn4c(nnc4C(F)(F)F)C3)cc2)cc2ncn(C3CC3)c12)[C@H]1CNC(=O)C1 [(R)-4-((R)-1-((3-cyclopropyl-6-(4-(3-(trifluoromethyl)-5,6-dihydro-[1,2,4]triazolo[4,3-a]pyrazin-7(8H)-yl)phenyl)-3H-imidazo[4,5-c]pyridin-4-yl)oxy)ethyl)pyrrolidin-2-one] | 2.17 nM |
| C[C@@H](Oc1nc(-c2ccc(N3CC(N4CCOCC4)C3)cc2)cc2ncn(C3CC3)c12)[C@H]1CNC(=O)C1 [(R)-4-((R)-1-((3-cyclopropyl-6-(4-(3-morpholinoazetidin-1-yl)phenyl)-3H-imidazo[4,5-c]pyridin-4-yl)oxy)ethyl)pyrrolidin-2-one] | 5.69 nM |
| C[C@@H](Oc1nc(-c2ccc(N3CCN(S(=O)(=O)C4CC4)CC3)cc2)cc2ncn(C3CC3)c12)[C@H]1CNC(=O)C1 [(R)-4-((R)-1-((3-cyclopropyl-6-(4-(4-(cyclopropylsulfonyl)piperazin-1-yl)phenyl)-3H-imidazo[4,5-c]pyridin-4-yl)oxy)ethyl)pyrrolidin-2-one] | 1.3 nM |
| CCS(=O)(=O)N1CCN(c2ccc(-c3cc4ncn(C5CC5)c4c(O[C@H](C)[C@H]4CNC(=O)C4)n3)cc2)CC1 [(R)-4-((R)-1-((3-cyclopropyl-6-(4-(4-(ethylsulfonyl)piperazin-1-yl)phenyl)-3H-imidazo[4,5-c]pyridin-4-yl)oxy)ethyl)pyrrolidin-2-one] | 1.05 nM |
| CC(C)S(=O)(=O)N1CCN(c2ccc(-c3cc4ncn(C5CC5)c4c(O[C@H](C)[C@H]4CNC(=O)C4)n3)cc2)CC1 [(R)-4-((R)-1-((3-cyclopropyl-6-(4-(4-(isopropylsulfonyl)piperazin-1-yl)phenyl)-3H-imidazo[4,5-c]pyridin-4-yl)oxy)ethyl)pyrrolidin-2-one] | 1.12 nM |
| C[C@@H](Oc1nc(-c2ccc(N3CCN(S(=O)(=O)C4COC4)CC3)cc2)cc2ncn(C3CC3)c12)[C@H]1CNC(=O)C1 [(R)-4-((R)-1-((3-cyclopropyl-6-(4-(4-(oxetan-3-ylsulfonyl)piperazin-1-yl)phenyl)-3H-imidazo[4,5-c]pyridin-4-yl)oxy)ethyl)pyrrolidin-2-one] | 1.31 nM |
| C[C@@H](Oc1nc(-c2ccc(N3CCn4cnnc4C3)cc2)cc2ncn(C3CC3)c12)[C@H]1CNC(=O)C1 [(R)-4-((R)-1-((3-cyclopropyl-6-(4-(5,6-dihydro-[1,2,4]triazolo[4,3-a]pyrazin-7(8H)-yl)phenyl)-3H-imidazo[4,5-c]pyridin-4-yl)oxy)ethyl)pyrrolidin-2-one] | 1.3 nM |
| COc1cc(-c2cc3ncn(C4CC4)c3c(O[C@H](C)[C@H]3CNC(=O)C3)n2)ccc1OC(F)F [(R)-4-((R)-1-((3-cyclopropyl-6-(4-(difluoromethoxy)-3-methoxyphenyl)-3H-imidazo[4,5-c]pyridin-4-yl)oxy)ethyl)pyrrolidin-2-one] | 5.22 nM |
